*1 amine or outer side, *2 acyl side, *3 side chain or, on linkers, in order; H or OH if unused. Where a SMILES comes first, the peptide text is derived from it. Where no end group is shown, it is not given here. [ ]: non-standard residue; d: D form. isoSer(2S) = O=C([C@@H](O)CN[*:1])[*:2]
Legend:
recombinant ADAM8 = molecular target: T1, recombinant ADAM8 (Mus musculus, UniProt Q05910); assay: Fluorescence assay of purified recombinant ADAM8 with fluorogenic CD23 peptide substrate; format: biochemical; conditions: for inhibition of ADAM8 proteolytic activity: FIG. 1B, peptides at 100 nM
T1 sequence (Q05910 17-826): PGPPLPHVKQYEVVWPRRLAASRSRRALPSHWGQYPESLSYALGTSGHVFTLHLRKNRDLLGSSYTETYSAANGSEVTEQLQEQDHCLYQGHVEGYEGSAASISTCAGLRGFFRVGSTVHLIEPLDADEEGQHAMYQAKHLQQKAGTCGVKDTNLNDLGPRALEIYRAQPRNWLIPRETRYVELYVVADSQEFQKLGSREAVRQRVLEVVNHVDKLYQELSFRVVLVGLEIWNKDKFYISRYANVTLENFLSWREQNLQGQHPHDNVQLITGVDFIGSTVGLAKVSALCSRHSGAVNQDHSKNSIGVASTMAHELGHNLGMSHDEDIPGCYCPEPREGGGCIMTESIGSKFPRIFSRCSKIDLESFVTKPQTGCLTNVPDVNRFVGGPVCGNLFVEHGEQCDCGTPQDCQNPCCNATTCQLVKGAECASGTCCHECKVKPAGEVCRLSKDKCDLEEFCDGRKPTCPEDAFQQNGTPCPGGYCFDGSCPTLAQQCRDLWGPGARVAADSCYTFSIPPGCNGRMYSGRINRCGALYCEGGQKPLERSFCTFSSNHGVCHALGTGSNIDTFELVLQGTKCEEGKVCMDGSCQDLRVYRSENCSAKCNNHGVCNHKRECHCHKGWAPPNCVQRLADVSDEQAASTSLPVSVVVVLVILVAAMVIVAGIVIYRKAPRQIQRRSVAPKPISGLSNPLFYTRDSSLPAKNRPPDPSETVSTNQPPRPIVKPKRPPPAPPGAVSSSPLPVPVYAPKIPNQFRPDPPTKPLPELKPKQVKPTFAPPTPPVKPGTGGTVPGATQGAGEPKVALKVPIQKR
Method: In the following example, the ability of cyclic peptides to inhibit the activity of a recombinant ADAM8 was tested in fluorescence assays using a fluorogenic ADAM8 substrate (Moss and Rasmussen, 2007).
(§1) Activity of purified recombinant ADAM8 was assessed by using a fluorogenic CD23 peptide (Dabcyl-[…](5-FAM)-CONH2, SEQ ID NO:19) as a substrate. 50 ng substrate was incubated with 100 ng of ADAM8 in assay buffer (25 mM TrisHCl pH 7.5, 10 mM CaCl2, 150 mM NaCl) at 37° C. in the time range of 0 to 18 hours. Potential ADAM8 inhibitors were preincubated for 30 min before addition of the substrate. As a negative control, CD23 was incubated with assay buffer. For determination of ADAM10 activity, 100 ng of the recombinant ADAM10 protein (R&D systems) was used in conjunction with the fluorogenic substrate Dabcyl-LAQA(HomoPhe) RSC (Fluorescein)-NH2 (SEQ ID NO:55) in assay buffer (TrisHCl pH 9.0, 2.5 μM ZnCl2). For both assays the final volume in each well was 150 μl. Activity was measured as increase in fluorescence resulting from ADAM8/ADAM10 to cleave the quenched fluorescent substrates (λ excitation: 485 nm; λ emission: 520 nm) using a BMG Optima plate reader fluorometer.

recombinant ADAM10 = molecular target: T2, recombinant ADAM10 (Homo sapiens, UniProt O14672); assay: Fluorescence assay of recombinant ADAM10 with fluorogenic LAQA peptide substrate; format: biochemical; conditions: FIG. 2, peptides at 100 nM
T2 construct: purchased R&D systems
T2 sequence (O14672 214-748): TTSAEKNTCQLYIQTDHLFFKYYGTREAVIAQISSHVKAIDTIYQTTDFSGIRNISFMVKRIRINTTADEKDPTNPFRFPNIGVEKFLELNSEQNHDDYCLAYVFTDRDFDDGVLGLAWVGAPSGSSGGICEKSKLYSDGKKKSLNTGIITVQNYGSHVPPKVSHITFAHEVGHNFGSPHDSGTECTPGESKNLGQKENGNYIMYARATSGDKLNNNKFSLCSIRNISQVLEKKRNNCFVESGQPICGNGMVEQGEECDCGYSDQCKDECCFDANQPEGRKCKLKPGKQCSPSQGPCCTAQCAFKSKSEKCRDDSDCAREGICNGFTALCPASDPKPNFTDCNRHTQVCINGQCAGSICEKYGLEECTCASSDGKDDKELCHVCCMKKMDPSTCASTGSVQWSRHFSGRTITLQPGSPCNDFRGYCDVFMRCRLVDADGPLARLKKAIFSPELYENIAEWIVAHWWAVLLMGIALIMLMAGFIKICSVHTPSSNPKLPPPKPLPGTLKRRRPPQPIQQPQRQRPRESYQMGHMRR
Method: as §1

ADAM8 DC domain = molecular target: T3, ADAM8 DC domain (Mus musculus, UniProt Q05910); assay: Adhesion of ADAM8-expressing cells to plates coated with recombinant ADAM8 DC domain; format: cell-based; conditions: FIG. 8; concentration used in the range of 10 nM
T3 construct: recombinant ADAM8 disintegrin/cysteine-rich (DC) domain; Myc (C); His6 (C); made in house; host or cells: E. coli strain TOP10
T3 sequence (Q05910 402-643 limits assumed): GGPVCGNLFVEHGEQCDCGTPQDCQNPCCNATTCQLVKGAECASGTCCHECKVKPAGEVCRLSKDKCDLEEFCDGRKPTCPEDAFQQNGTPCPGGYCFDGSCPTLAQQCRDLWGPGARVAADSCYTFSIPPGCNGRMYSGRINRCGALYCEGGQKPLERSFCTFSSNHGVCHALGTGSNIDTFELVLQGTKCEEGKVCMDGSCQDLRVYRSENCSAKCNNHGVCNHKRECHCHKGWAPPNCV
Method: In this example, peptides synthesised as described in example 1 were used to target cell adhesion mediated by the ADAM8 DC domain. A recombinant DC domain of ADAM8 was expressed and purified from E. coli and then coated onto cell culture plates. Cells over-expressing ADAM8 were then allowed to bind to the ADAM8 DC domain on the plates.
96-well plates were coated with 50 μg/ml of recombinant ADAM8 DC protein in PBS at 4° C. for 16 h. To express the recombinant DC domain of ADAM8, the cDNA fragment encoding the A8 DC domain was generated by PCR using Platinum™ Pfx polymerase (Invitrogen) with the following primers: DCE-A8f, 5′-GGTGGCCCTGTGTGTGGAAAC-3′ (SEQ ID NO:17); DCE-A8r, 5′-TACACAGTTGGGTGGTGCCCA-3′ (SEQ ID NO:18). The resulting cDNA fragment was cloned into the bacterial expression vector pTrcHis2 (Invitrogen) containing a C-terminal Myc and His6 tag. This vector was transformed into E. coli strain TOP10 (Invitrogen). Recombinant protein expression was induced with 1 mM isopropyl-1-thio-D-galactopyranoside for 5 h to overnight. […]
After application of the recombinant protein and blocking with bovine serum albumin for 1 h, 10^5 cells in PBS or medium (with 5% FCS) were seeded onto the plates. […] After 1 h incubation at 37 C, the wells were rinsed 3× with PBS, and the remaining cells were quantified by counting 10 randomly chosen viewing fields (100-fold magnification). […]

[1] = test system: C6 glioma cells overexpressing ADAM8; assay: Matrigel invasion assay, C6 glioma cells overexpressing ADAM8; format: cell-based, rat
Method: (§2) In this example, the ability of cyclic peptide to inhibit ADAM8 mediated tumour cell migration through an artificial extracellular matrix (Matrigel®) was measured in a cell invasion assay. Rat glioma C6 cells were stably transfected with full length ADAM8 cDNA [Schlomann et al, 2002]. Untransfected C6 glioma cells served as controls. 5×10^4 cells were suspended in 100 μl of culture medium in the absence or presence of peptides (100 nM) and loaded into Matrigel invasion chambers (BD Biosciences, Heidelberg, Germany), which were handled according to the supplier's manual. After 20 hours incubation time, invaded cells were fixed with methanol, stained with toluidine blue, and counted. Experiments were performed in triplets and from each well, 10 viewing fields were counted manually under the microscope. Differences between the values obtained were analysed using the Mann-Whitney U test.
(§3) ADAM8 was overexpressed by transfection in fibroblast (L929) and glioma (C6) cell lines which show no invasive potential under untransfected conditions. When ADAM8 expressing plasmids were transfected into these cell lines, the cells became highly invasive in Matrigel Invasion assays (e.g. as described in example 5). […] Invasion is also mediated by a soluble variant of ADAM8, which is released upon activation of ADAM8 in these cells.

[2] = test system: mouse fibroblast (L929) cells overexpressing ADAM8; assay: Matrigel invasion assay, L929 fibroblast cells overexpressing ADAM8; format: cell-based; conditions: FIG. 11; peptide 5 μM
Method: as §2, §3

ADAM8 = assay: Specificity test, ADAM catalytic/disintegrin construct, CD23 fluorescent substrate; format: biochemical; conditions: read-out: ADAM inhibition with P1, IC50, 10 mM CaCl2 in buffer
Method: (§4) The maximal concentration of the inhibitor peptide was 10 μM.
(§5) ADAM catalytic/disintegrin constructs were monitored at 5-min intervals using the indicated fluorescent substrates with excitation and emission wavelengths of 485 and 530 nm, respectively. The substrates were diluted from a 10 mM stock in DMSO to 10 μM in assay buffer containing 20 mM Tris, pH 8.0, and 6×10^−4% Brij-35. For experiments with ADAM8 only, 10 mM CaCl2 was added to the buffer. Reactions were run in a 96-well plate with either inhibitor (10 nM-10 μM) in 1% DMSO or a 1% DMSO control. Background wells contained substrate and 1% DMSO and were subtracted from all other wells. Endpoints were determined in wells containing substrate and an excess of ADAM17 for the TNF-alpha substrate and ADAM8 for the CD23 substrate. Concentrations of ADAM proteins were in the range of 2.0 nM for TACE, 10 nM for ADAM9, 5 nM for ADAM10, 10 nM for ADAM8, and 2 nM for ADAM12.

ADAM9 = assay: Specificity test, ADAM catalytic/disintegrin construct, TNF peptide fluorescent substrate; format: biochemical; conditions: maximal concentration 10 μM
Method: as §4, §5

ADAM10 = assay: Specificity test, ADAM catalytic/disintegrin construct, LAQA fluorescent substrate; format: biochemical; conditions: maximal concentration 10 μM
Method: as §4, §5

ADAM12 = assay: as above; format: biochemical; conditions: maximal concentration 10 μM
Method: as §4, §5

ADAM17 (TACE) = assay: as above; format: biochemical; conditions: maximal concentration 10 μM
Method: as §4, §5

Mice (strain C57BL/6) = assay: Acute and chronic toxicity study in mice; format: in vivo, mouse
Method: To test for acute and for chronic toxicity, we used dosages of 1 μg, 5 μg, and 10 μg per gram of body weight in 100 μl of injection volume. Mice (strain C57BL/6) were either injected once (acute toxicity) or weekly three-times (chronic toxicity) intraperitoneal with the dosages indicated. All mice were analysed in cohorts of n=6, and NaCl injected mice were used as controls. […] We assessed spontaneous behaviour and motor performance of the mice. […] After 4 weeks, mice were sacrificed and representative organs were dissected and assessed histologically by normal hematoxylin/eosin (HE) staining. For each cohort of mice, one representative is documented for brain (cerebellum and cortex), liver, spleen, and kidney in FIG. 13.

Compound | IC50 (recombinant ADAM8; FIG. 1A, CD23 as substrate, read-out: IC50 for the inhibition of ADAM8) [nM] | inhibition of ADAM8 proteolytic activity (recombinant ADAM8; CD23 substrate) | concentration dependence of ADAM8 inhibition (recombinant ADAM8; FIG. 1C, 50-200 nM, CD23 substrate) | inhibition of ADAM10 (recombinant ADAM10) | inhibition of cell adhesion mediated by ADAM8 DC domain (ADAM8 DC domain) | tumour cell invasion in ADAM8 expressing cells ([1]; FIG. 4, Example 5, 20 hours) | cell invasion, dose dependence ([1]; FIG. 10, Example 7) | ADAM-8 mediated cell invasion ([1]; FIG. 12, peptide 5 μM) | ADAM-8 mediated cell invasion [2] | IC50 (ADAM8) [nM] | ADAM inhibition with P1 (ADAM9) | ADAM inhibition with P1 (ADAM10) | ADAM inhibition with P1 (ADAM12) | ADAM inhibition with P1 (ADAM17 (TACE)) | spontaneous behaviour and motor performance (Mice (strain C57BL/6); 1, 5, 10 μg per gram body weight i.p., once or weekly three-times, 4 weeks) | survival and obvious abnormalities (Mice (strain C57BL/6); 1, 5, 10 μg per gram body weight i.p., once or weekly three-times, 4 weeks observation) | histology (HE staining) of brain, liver, spleen, kidney (Mice (strain C57BL/6); FIG. 13, after 4 weeks)
CNC(=O)[C@H](Cc1ccccc1)NC(=O)[C@H](CC(C)C)[C@H](CSc1cccs1)C(=O)NO [BB-94, batimastat, reference compound] | ~50 | – | – | – | – | – | – | – | – | – | – | – | – | – | – | – | –
CC(C)C[C@@H]1NC(=O)[C@H](CCCNC(=N)N)NC(=O)[C@H](CCCCN)NC(=O)[C@H](CC(=O)O)NC(=O)[C@H](CCCCN)NC(=O)[C@@H](O)CNC1=O [Peptide P1, c(RLsKDK)] (cyclo(RL[isoSer(2S)]KDK)) | – | showed the most marked inhibition | concentration-dependant inhibition | little inhibition | very potent in the inhibition of cell adhesion | dramatically reduced tumour cell invasion | blocks cell invasion in a dose-dependent manner | significantly blocked | significantly blocked | 100 | No inh. at 10 μM | No inh. at 10 μM | No inh. at 10 μM | No inh. at 10 μM | not able to detect any differences in behaviour | all mice were alive and did not show any obvious abnormalities | did not show any evidence of toxicity
H-RLSKDK-OH (not fully specified (bridges)) [Peptide P4] | – | little effect on ADAM8 activity | – | – | – | – | – | – | – | – | – | – | – | – | – | – | –

From patent US10472393B2, “Method for inhibiting ADAM proteases with cyclic peptides” (Cancer Research Technology Limited, priority 2007, dated 2019)
